From PMC8151276, “An Integrated Approach toward NanoBRET Tracers for Analysis of GPCR Ligand Engagement” (Molecules, 2021) come the findings set out here.

Format in all cases: binding
For test [1], the target named is T1, CCKBR (Homo sapiens, UniProt P32239).
T1 construct: purchased Promega (in-house HiBiT-GPCR construct library, NanoBRET)
T1 sequence (P32239 1-447): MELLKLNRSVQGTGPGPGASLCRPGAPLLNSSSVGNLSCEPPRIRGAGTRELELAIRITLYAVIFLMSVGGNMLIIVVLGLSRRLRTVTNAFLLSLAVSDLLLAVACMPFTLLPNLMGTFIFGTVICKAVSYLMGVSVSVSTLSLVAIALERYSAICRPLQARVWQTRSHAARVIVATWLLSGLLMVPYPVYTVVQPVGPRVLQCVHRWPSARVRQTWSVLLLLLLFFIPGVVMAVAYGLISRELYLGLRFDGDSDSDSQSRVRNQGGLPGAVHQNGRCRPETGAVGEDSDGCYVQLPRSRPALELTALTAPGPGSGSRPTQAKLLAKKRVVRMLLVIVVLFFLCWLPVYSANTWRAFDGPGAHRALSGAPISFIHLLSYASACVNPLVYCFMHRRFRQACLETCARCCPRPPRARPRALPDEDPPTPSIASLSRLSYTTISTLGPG
The test can be described thus: NanoBRET screen HiBiT-CCKBR in HEK293. As to the method:
(§1) Each tracer candidate was screened across the entire library of HiBiT-GPCR constructs using NanoBRET as the detection modality. As depicted in Figure 4A, the specificity of interactions was evaluated through decrease in BRET due to competitive displacement of a bound tracer by excess parental compound. Each tracer was analyzed for binding to each HiBiT-GPCR fusion in the absence and in the presence of competing parental compound. Briefly, HEK293 cells were transfected with HiBiT-GPCR constructs diluted into promoterless DNA to reduce expression and maximize translocation to the cell surface. Each tracer candidate was then screened at concentrations of 1 μM and 0.1 μM across cells expressing these fusions. Cells were treated for 1.5 h with tracer either alone or in the presence of 20 μM competing parental compound (i.e., control). BRET was measured upon addition of purified LgBiT and subsequent complementation with HiBiT genetically fused to a GPCR. The specificity of interactions was assessed through a decrease in BRET signal due to competitive displacement of the bound tracer. To further gauge the robustness of these interactions, the fold response over the control (i.e., BRETtracer/BRETcontrol) was calculated. We chose a 1.5-fold response, which translates to ≥7-fold signal over noise as the minimal threshold required to score an interaction as positive. […]. Below we highlight the screening results obtained for our exemplary fluorescent tracers based on Clozapine, Amitriptyline and AZD1283.
(§2) HiBiT-GPCR DNA constructs were diluted in 10 mM Tris pH 8 to a final concentration of 0.01 μg/μL, arrayed in 96-well plates and stored at −20 °C. For transfection, HEK293 cells were suspended in Opti-MEM (without phenol red) supplemented with 2% fetal bovine serum (Seradigm) and 100 units/mL penicillin–streptomycin (Gibco) at a final concentration of 220,000 cells/mL and dispensed into white 96-well plates at 90 μL/well. Subsequent transfections and screens were carried using an Agilent Bravo Automated Liquid Handling Platform. First, the 96-well HiBiT DNA arrays were diluted 25-fold in Opti-MEM (without serum or phenol red) to a final concentration of 0.0004 μg/μL and 20 μL of the diluted DNAs were transferred into new 96-well plates. Next, promoterless carrier DNA (1 μg/μL) was diluted 25-fold (0.04 μg/μL) and then dispensed into the diluted arrays at 20 μL/well. Following brief mixing, Viafect transfection reagent (Promega) diluted 16-fold into Opti-MEM was dispensed into the plates at 40 μL/well. After mixing by pipetting, plates were incubated for 10 min on the pipetting station deck. The DNA-transfection reagent complexes were then added to plates containing cells. To facilitate the screen, 10 μL of DNA-transfection reagent complexes were added in duplicates to the top 4 and bottom 4 rows, resulting in two identical 48-well arrays per plate. Plates with transfected cells were incubated for 18–20 h at 37 °C/5% CO2. A screen of each tracer across the entire library using two different concentrations requires duplicate plates of transfected cells. Depending on the number of tracers being screened, transfections can be scaled up using the same ratios. The next day, for each tracer, four 20× screening solutions in tracer dilution buffer (Promega) were prepared: two duplicates at final concentration of 20 μM and two duplicates at a final concentration of 2 μM. A competing unmodified compound was added to one of each duplicate at a final concentration of 400 μM. The four resulting solutions were diluted 4-fold in Opti-MEM without serum or phenol red to generate 5× solutions (5 µM and 0.5 µM tracer +/− 100 μM competing compound). To screen the library, a BioTek MultiFlo FX liquid dispenser was used to dispense 22.5 µL of tracer solution to the top 4 rows and 22.5 µL tracer + competing compound solution to the 4 bottom rows. Plates were briefly mixed on an orbital shaker and incubated for 1.5 h at room temperature. […]
(In BRET a luciferase serves as donor, and the signal depends on an acceptor being close.)

Test [2] has as its target T2, HTR1E (Homo sapiens, UniProt P28566).
T2 construct: purchased Promega (in-house HiBiT-GPCR construct library, NanoBRET)
The test can be described thus: NanoBRET screen HiBiT-HTR1E in HEK293. The procedure: as §1, §2

In test [3] the target is T3, P2RY13 (Homo sapiens, UniProt Q9BPV8).
T3 construct: purchased Promega (in-house HiBiT-GPCR construct library, NanoBRET)
T3 sequence (Q9BPV8 1-354): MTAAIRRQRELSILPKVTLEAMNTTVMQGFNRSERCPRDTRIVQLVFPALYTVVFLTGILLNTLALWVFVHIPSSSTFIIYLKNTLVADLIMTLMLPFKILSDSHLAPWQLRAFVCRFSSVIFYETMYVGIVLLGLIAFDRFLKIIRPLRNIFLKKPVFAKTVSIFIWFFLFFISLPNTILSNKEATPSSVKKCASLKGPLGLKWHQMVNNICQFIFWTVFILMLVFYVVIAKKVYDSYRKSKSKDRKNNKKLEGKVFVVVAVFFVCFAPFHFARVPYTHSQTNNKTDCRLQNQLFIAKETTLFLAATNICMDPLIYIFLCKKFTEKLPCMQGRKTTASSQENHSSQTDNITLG
The test can be described thus: NanoBRET screen HiBiT-P2RY13 in HEK293. As to the method: as §1, §2

Setting [4] is: tracer at 0.1μM, listed as amitriptyline-b-2-NB590.
The mark [5] stands for this setting: tracer at 1μM, listed as amitriptyline-b-2-NB590.

Structures are written as SMILES.

T2 sequence (P28566 whole entry): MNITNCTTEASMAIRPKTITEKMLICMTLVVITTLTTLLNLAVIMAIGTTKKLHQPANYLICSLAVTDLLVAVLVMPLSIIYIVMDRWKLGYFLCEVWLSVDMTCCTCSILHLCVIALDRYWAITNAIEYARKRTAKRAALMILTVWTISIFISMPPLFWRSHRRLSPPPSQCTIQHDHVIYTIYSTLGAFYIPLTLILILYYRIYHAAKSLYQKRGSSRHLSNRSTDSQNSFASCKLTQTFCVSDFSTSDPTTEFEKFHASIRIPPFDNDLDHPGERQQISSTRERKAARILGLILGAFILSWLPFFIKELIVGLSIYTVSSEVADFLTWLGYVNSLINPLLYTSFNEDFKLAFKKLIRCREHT

With `Cc1cc2c(s1)Nc1ccccc1N=C2N1CCN(CCCNC(=O)CCOCCOCCOCCOCCNC(=O)CCc2ccc3n2[B-](F)(F)[N+]2=C(c4ccc[nH]4)C=CC2=C3)CC1` [Olanzapine-a-2-NB590], the “NanoBRET Fold Response” value in test [1] (CCKBR, tracer 0.1μM) turned out to be 1.07; in test [1] (CCKBR, tracer 1μM), 0.89; in test [2] (HTR1E, tracer 0.1μM) it was 0.99; in test [2] (HTR1E, tracer 1μM) it was 1.09; in test [3] (P2RY13, tracer 0.1μM), 1.09; in test [3] (P2RY13, tracer 1μM), 0.86.
In the case of `CN(C)CCC=C1c2ccccc2CCc2ccc(C(=O)NCCNC(=O)CCOCCOCCOCCOCCNC(=O)CCc3ccc4n3[B-](F)(F)[N+]3=C(c5ccc[nH]5)C=CC3=C4)cc21` [Amitriptyline-b-2-NB590], the “NanoBRET Fold Response” value in test [1] (setting [4]) was 1.10; in test [1] (setting [5]), 1.09; in test [2] (setting [4]), 1.01; in test [2] (setting [5]) it was 0.95; in test [3] (setting [4]), 1.08; in test [3] (setting [5]) it was 0.96.
As for `O=C(CCOCCOCCOCCOCCNC(=O)CCc1ccc2n1[B-](F)(F)[N+]1=C(c3ccc[nH]3)C=CC1=C2)NCCCN1CCN(C2=Nc3cc(Cl)ccc3Nc3ccccc32)CC1` [Clozapine-a-2-NB590], the “NanoBRET Fold Response” value in test [1] (CCKBR, 0.1μM tracer) is 1.01; in test [1] (CCKBR, 1μM tracer) it was 1.01; in test [2] (HTR1E, 0.1μM tracer), 1.01; in test [2] (HTR1E, 1μM tracer), 0.96; in test [3] (P2RY13, 0.1μM tracer), 1.06; in test [3] (P2RY13, 1μM tracer) it was 0.94.
On to `CN1CCN(C2=Nc3cc(Cl)ccc3Nc3ccc(CNC(=O)CCOCCOCCOCCOCCNC(=O)CCc4ccc5n4[B-](F)(F)[N+]4=C(c6ccc[nH]6)C=CC4=C5)cc32)CC1` [Clozapine-b-2-NB590], for which the “NanoBRET Fold Response” value in test [1] (CCKBR, 0.1μM tracer) is reported as 0.99; in test [1] (CCKBR, 1μM tracer), 1.07; in test [2] (HTR1E, 0.1μM tracer), 0.99; in test [2] (HTR1E, 1μM tracer) it was 0.97; in test [3] (P2RY13, 0.1μM tracer) it was 1.02; in test [3] (P2RY13, 1μM tracer), 0.99.
In the case of `Cc1nc2n(c(=O)c1CCN1CCC(c3noc4cc(F)ccc34)CC1)CCCC2OC(=O)NCCOCCOCCOCCOCCNC(=O)CCc1ccc2n1[B-](F)(F)[N+]1=C(c3ccc[nH]3)C=CC1=C2` (stereo not drawn) [Risperidone-2-NB590], the “NanoBRET Fold Response” value was found to be 1.01 in test [1] (CCKBR, tracer 0.1μM); 0.81 in test [1] (CCKBR, tracer 1μM); 0.96 in test [2] (HTR1E, tracer 0.1μM); 1.07 in test [2] (HTR1E, tracer 1μM); 1.03 in test [3] (P2RY13, tracer 0.1μM); 0.90 in test [3] (P2RY13, tracer 1μM).
